Columns and labels:
Test in all cases: X-ray crystal structure of complex
Type in all cases: binding
MsmUdgX [1] = molecular target: T1, MsmUdgX (Mycolicibacterium smegmatis, UniProt A0QP43, H109S/R184A); conditions: uracil excised from 5-mer ssDNA TTUTT, DNA backbone not modelled; active site; pH 7.0
T1 construct: gene MSMEG_0265; N-terminal 6xHis tag (pET14b), expressed in E. coli Rosetta (DE3), Ni-NTA and Superdex-75 purified; 4Fe-4S protein

MsmUdgX [2] = molecular target: T2, MsmUdgX (Mycolicibacterium smegmatis, UniProt A0QP43, H109A); conditions: uracil excised from 5-mer ssDNA TTUTT, DNA backbone not modelled; active site; pH 7.0
T2 construct: gene MSMEG_0265; N-terminal 6xHis tag (pET14b), expressed in E. coli Rosetta (DE3), Ni-NTA and Superdex-75 purified; 4Fe-4S protein

MsmUdgX [3] = molecular target: T3, MsmUdgX (Mycolicibacterium smegmatis, UniProt A0QP43, H109K); conditions: uracil excised from 5-mer ssDNA TTUTT, DNA backbone not modelled; active site; pH 7.0
T3 construct: gene MSMEG_0265; N-terminal 6xHis tag (pET14b), expressed in E. coli Rosetta (DE3), Ni-NTA and Superdex-75 purified; 4Fe-4S protein

MsmUdgX [4] = molecular target: T4, MsmUdgX (Mycolicibacterium smegmatis, UniProt A0QP43, H109Q); conditions: uracil excised from 5-mer ssDNA TTUTT, DNA backbone not modelled; active site; pH 7.0
T4 construct: gene MSMEG_0265; N-terminal 6xHis tag (pET14b), expressed in E. coli Rosetta (DE3), Ni-NTA and Superdex-75 purified; 4Fe-4S protein

MsmUdgX [5] = molecular target: T5, MsmUdgX (Mycolicibacterium smegmatis, UniProt A0QP43, H109G); conditions: uracil excised from 5-mer ssDNA TTUTT, DNA backbone not modelled; active site; pH 7.0
T5 construct: gene MSMEG_0265; N-terminal 6xHis tag (pET14b), expressed in E. coli Rosetta (DE3), Ni-NTA and Superdex-75 purified; 4Fe-4S protein

MsmUdgX [6] = molecular target: T6, MsmUdgX (Mycolicibacterium smegmatis, UniProt A0QP43, H109C); conditions: uracil excised from 5-mer ssDNA TTUTT, DNA backbone not modelled; active site; pH 7.0
T6 construct: gene MSMEG_0265; N-terminal 6xHis tag (pET14b), expressed in E. coli Rosetta (DE3), Ni-NTA and Superdex-75 purified; 4Fe-4S protein

MsmUdgX [7] = molecular target: T7, MsmUdgX (Mycolicibacterium smegmatis, UniProt A0QP43); conditions: uracil excised from 5-mer ssDNA TTUTT; active site; pH 7.0
T7 construct: gene MSMEG_0265; N-terminal 6xHis tag (pET14b), expressed in E. coli Rosetta (DE3), Ni-NTA and Superdex-75 purified; 4Fe-4S protein
T7 sequence (A0QP43 1-209): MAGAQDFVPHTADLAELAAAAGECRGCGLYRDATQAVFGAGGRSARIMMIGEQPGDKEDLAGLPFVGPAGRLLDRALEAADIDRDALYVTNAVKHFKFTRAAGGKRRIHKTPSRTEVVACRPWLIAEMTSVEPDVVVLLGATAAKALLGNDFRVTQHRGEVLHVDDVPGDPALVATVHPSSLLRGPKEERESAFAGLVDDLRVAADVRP

T4 sequence (A0QP43 entry or part of it H109Q): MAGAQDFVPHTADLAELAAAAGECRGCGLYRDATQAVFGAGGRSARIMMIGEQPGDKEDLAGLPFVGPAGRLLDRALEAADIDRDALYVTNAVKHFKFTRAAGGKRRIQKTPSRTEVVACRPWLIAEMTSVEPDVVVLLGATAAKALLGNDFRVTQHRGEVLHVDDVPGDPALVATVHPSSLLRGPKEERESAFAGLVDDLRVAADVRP
T6 sequence (A0QP43 entry or part of it H109C): as the sequence (A0QP43 entry or part of it H109Q) above, with Q109C counted along it
T3 sequence (A0QP43 entry or part of it H109K): as the sequence (A0QP43 entry or part of it H109Q) above, with Q109K counted along it
T5 sequence (A0QP43 entry or part of it H109G): as the sequence (A0QP43 entry or part of it H109Q) above, with Q109G counted along it
T2 sequence (A0QP43 entry or part of it H109A): as the sequence (A0QP43 entry or part of it H109Q) above, with Q109A counted along it
T1 sequence (A0QP43 entry or part of it H109S/R184A): as the sequence (A0QP43 entry or part of it H109Q) above, with Q109S, R184A counted along it

X-ray crystal structure of complex (MsmUdgX [1]): H109S/R184A (orange, PDB ID: 8IIT)
X-ray crystal structure of complex (MsmUdgX [4]): H109Q (green, PDB ID: 8IIP)
X-ray crystal structure of complex (MsmUdgX [5]): H109G (cyan, PDB ID: 8IIL)
X-ray crystal structure of complex (MsmUdgX [6]): H109C (magenta, PDB ID: 8III)
Structure (SMILES): O=c1cc[nH]c(=O)[nH]1 [uracil]
X-ray crystal structure of complex (MsmUdgX [2]): H109A (brown, PDB ID: 8IIG), mutants with uracil in the active sites cavity
X-ray crystal structure of complex (MsmUdgX [3]): Crystal structures of H109K (yellow, (PDB ID: 8IIN)
X-ray crystal structure of complex (MsmUdgX [7]): Uracil bound in the active site of MsmUdgX, post its cleavage from the DNA backbone

From PMC10359453, “Mutational and structural analyses of UdgX: insights into the active site pocket architecture and its evolution” (Nucleic Acids Research, 2023)
